According to PMC5218480 (PLoS ONE, 2017):

System: MV-4-11 cells
Assay: Gene expression microarray analysis (Affymetrix PrimeView) and GSEA
Format: cell-based, human
Set-up: RFU PODN (11730768_x_at) / Fold change /veh PODN (11730768_x_at) / RFU LINC00158 (11744669_a_at) / Fold change /veh LINC00158 (11744669_a_at) / RFU DUSP10 (11751237_a_at) / Fold change /veh DUSP10 (11751237_a_at) / RFU ID3 (11757404_x_at) / Fold change /veh ID3 (11757404_x_at) / RFU PLEKHG5 (11737974_s_at) / Fold change /veh PLEKHG5 (11737974_s_at) / RFU LRRC4B (11730491_at) / Fold change /veh LRRC4B (11730491_at) / RFU GIMAP4 (11747438_a_at) / Fold change /veh GIMAP4 (11747438_a_at) / RFU KRT8 (11758183_x_at) / Fold change /veh KRT8 (11758183_x_at) / RFU CNN1 (11734310_a_at) / Fold change /veh CNN1 (11734310_a_at) / RFU VPS37D (11726825_at) / Fold change /veh VPS37D (11726825_at) / RFU C10orf10 (11716522_x_at) / Fold change /veh C10orf10 (11716522_x_at) / RFU KIR2DL2 /// KIR2DL4 /// KIR2DL5A /// KIR2DL5B /// KIR2DS1 /// KIR2DS2 /// KIR2DS3 /// KIR2DS4 /// KIR3DL3 /// KIR3DL3 /// KIR3DS1 (11738374_at) / Fold change /veh KIR2DL2 /// KIR2DL4 /// KIR2DL5A /// KIR2DL5B /// KIR2DS1 /// KIR2DS2 /// KIR2DS3 /// KIR2DS4 /// KIR3DL3 /// KIR3DL3 /// KIR3DS1 (11738374_at) / RFU C1QL1 (11718748_at) / Fold change /veh C1QL1 (11718748_at) / RFU TMPRSS4 (11747572_a_at) / Fold change /veh TMPRSS4 (11747572_a_at) / RFU HAMP (11756126_x_at) / Fold change /veh HAMP (11756126_x_at) / RFU RNFT2 (11725882_a_at) / Fold change /veh RNFT2 (11725882_a_at) / RFU NR4A2 (11747474_a_at) / Fold change /veh NR4A2 (11747474_a_at) / RFU ABCC12 (11746883_a_at) / Fold change /veh ABCC12 (11746883_a_at) / RFU TMEM136 (11760407_x_at) / Fold change /veh TMEM136 (11760407_x_at) / RFU CLDN22 /// WWC2 (11732394_at) / Fold change /veh CLDN22 /// WWC2 (11732394_at) / RFU HLA-DPB1 (11760878_x_at) / Fold change /veh HLA-DPB1 (11760878_x_at) / RFU SPINT1 (11716480_a_at) / Fold change /veh SPINT1 (11716480_a_at) / RFU GAP43 (11754022_s_at) / Fold change /veh GAP43 (11754022_s_at) / RFU A4GNT (11735810_at) / Fold change /veh A4GNT (11735810_at) / RFU PRB3 (11715151_x_at) / Fold change /veh PRB3 (11715151_x_at) / RFU TUBB4B (11761932_at) / Fold change /veh TUBB4B (11761932_at) / RFU CAPN14 (11732068_a_at) / Fold change /veh CAPN14 (11732068_a_at) / RFU TMCC2 (11721928_a_at) / Fold change /veh TMCC2 (11721928_a_at) / RFU IRGQ (11745062_a_at) / Fold change /veh IRGQ (11745062_a_at) / RFU FAM174B (11720279_a_at) / Fold change /veh FAM174B (11720279_a_at) / RFU TMPRSS4 (11748680_a_at) / Fold change /veh TMPRSS4 (11748680_a_at) / RFU FAM212B (11763350_a_at) / Fold change /veh FAM212B (11763350_a_at) / RFU PLEKHG5 (11743358_a_at) / Fold change /veh PLEKHG5 (11743358_a_at) / RFU ZSCAN30 (11745921_a_at) / Fold change /veh ZSCAN30 (11745921_a_at) / RFU CMKLR1 (11741424_a_at) / Fold change /veh CMKLR1 (11741424_a_at) / RFU LOC101060620 /// MAPK8IP1 (11723275_at) / Fold change /veh LOC101060620 /// MAPK8IP1 (11723275_at) / RFU SPTSSB (11747773_x_at) / Fold change /veh SPTSSB (11747773_x_at) / RFU PRSS12 (11739890_at) / Fold change /veh PRSS12 (11739890_at) / RFU BIN1 (11741810_x_at) / Fold change /veh BIN1 (11741810_x_at) / RFU WNT11 (11732464_a_at) / Fold change /veh WNT11 (11732464_a_at) / RFU C10orf10 (11716521_a_at) / Fold change /veh C10orf10 (11716521_a_at) / RFU C5orf56 (11738089_at) / Fold change /veh C5orf56 (11738089_at) / RFU CYB561 (11721691_x_at) / Fold change /veh CYB561 (11721691_x_at) / RFU ANKRD19P (11752326_a_at) / Fold change /veh ANKRD19P (11752326_a_at) / RFU OR2T12 /// OR2T33 /// OR2T8 (11738714_s_at) / Fold change /veh OR2T12 /// OR2T33 /// OR2T8 (11738714_s_at) / RFU VCAN (11748164_a_at) / Fold change /veh VCAN (11748164_a_at) / RFU JSRP1 (11732532_at) / Fold change /veh JSRP1 (11732532_at) / RFU KRTAP10-11 (11738290_x_at) / Fold change /veh KRTAP10-11 (11738290_x_at) / RFU MYO3A (11730013_a_at) / Fold change /veh MYO3A (11730013_a_at) / RFU EBF3 (11725865_a_at) / Fold change /veh EBF3 (11725865_a_at) / RFU CAMK2N1 (11719241_x_at) / Fold change /veh CAMK2N1 (11719241_x_at) / RFU C5orf56 (11738088_a_at) / Fold change /veh C5orf56 (11738088_a_at) / RFU OLFML3 (11715873_a_at) / Fold change /veh OLFML3 (11715873_a_at) / RFU LOC100653217 /// NTM (11731650_a_at) / Fold change /veh LOC100653217 /// NTM (11731650_a_at) / RFU MAPK11 (11762145_a_at) / Fold change /veh MAPK11 (11762145_a_at) / RFU FIZ1 (11724087_x_at) / Fold change /veh FIZ1 (11724087_x_at) / RFU OASL (11726364_x_at) / Fold change /veh OASL (11726364_x_at) / RFU SOX15 (11748057_x_at) / Fold change /veh SOX15 (11748057_x_at) / RFU CD79A (11719716_a_at) / Fold change /veh CD79A (11719716_a_at) / RFU HIST1H1D (11736915_at) / Fold change /veh HIST1H1D (11736915_at) / RFU CASKIN2 (11723855_a_at) / Fold change /veh CASKIN2 (11723855_a_at) / RFU LOC730098 (11760151_x_at) / Fold change /veh LOC730098 (11760151_x_at) / RFU OR4N2 (11742367_at) / Fold change /veh OR4N2 (11742367_at) / RFU PRRT2 (11749266_a_at) / Fold change /veh PRRT2 (11749266_a_at) / RFU SNX32 (11753110_a_at) / Fold change /veh SNX32 (11753110_a_at) / RFU CDHR5 (11726645_a_at) / Fold change /veh CDHR5 (11726645_a_at) / RFU RCAN1 (11760418_a_at) / Fold change /veh RCAN1 (11760418_a_at) / RFU FAM167A (11723789_a_at) / Fold change /veh FAM167A (11723789_a_at) / RFU FAM26E (11764081_at) / Fold change /veh FAM26E (11764081_at) / RFU ISYNA1 (11749810_s_at) / Fold change /veh ISYNA1 (11749810_s_at) / RFU ACY1 (11761880_at) / Fold change /veh ACY1 (11761880_at) / RFU 11764098_at / Fold change /veh 11764098_at / RFU SAMD14 (11745864_x_at) / Fold change /veh SAMD14 (11745864_x_at) / RFU NPB (11741838_a_at) / Fold change /veh NPB (11741838_a_at) / RFU TMPRSS6 (11731388_a_at) / Fold change /veh TMPRSS6 (11731388_a_at) / RFU KRTAP10-2 (11738614_at) / Fold change /veh KRTAP10-2 (11738614_at) / RFU ARHGAP8 /// PRR5-ARHGAP8 (11727945_x_at) / Fold change /veh ARHGAP8 /// PRR5-ARHGAP8 (11727945_x_at) / RFU KRTAP5-7 /// NADSYN1 (11734609_at) / Fold change /veh KRTAP5-7 /// NADSYN1 (11734609_at) / RFU RASL12 (11751679_a_at) / Fold change /veh RASL12 (11751679_a_at) / RFU CDKN2B (11736163_a_at) / Fold change /veh CDKN2B (11736163_a_at) / RFU PRF1 (11729649_at) / Fold change /veh PRF1 (11729649_at) / RFU, ZNF638 /// ZNF638-IT1 / Fold change vs veh, ZNF638 /// ZNF638-IT1 / RFU, PANK3 / Fold change vs veh, PANK3 / RFU, SH3YL1 / Fold change vs veh, SH3YL1 / RFU, ZEB2 / Fold change vs veh, ZEB2 / RFU, NRIP1 / Fold change vs veh, NRIP1 / RFU, PTTG1IP / Fold change vs veh, PTTG1IP / RFU, CAPN2 / Fold change vs veh, CAPN2 / RFU, MED14 / Fold change vs veh, MED14 / RFU, SNORA58 / Fold change vs veh, SNORA58 / RFU, C1orf63 / Fold change vs veh, C1orf63 / RFU, LRRFIP1 / Fold change vs veh, LRRFIP1 / RFU, NDUFAF7 / Fold change vs veh, NDUFAF7 / RFU, SLC12A2 / Fold change vs veh, SLC12A2 / RFU, IBTK / Fold change vs veh, IBTK / RFU, ESF1 / Fold change vs veh, ESF1 / Fold change vs veh, TMEM50B / RFU, TAOK1 / Fold change vs veh, TAOK1 / RFU, ACBD3 / Fold change vs veh, ACBD3 / RFU, TMA16 / Fold change vs veh, TMA16 / RFU, RWDD3 / Fold change vs veh, RWDD3 / RFU, BCAT1 / Fold change vs veh, BCAT1 / RFU, EDEM3 / Fold change vs veh, EDEM3 / RFU, TMEM33 / Fold change vs veh, TMEM33 / RFU, WDR75 / Fold change vs veh, WDR75 / RFU, AHCTF1 / Fold change vs veh, AHCTF1 / RFU, TFRC / Fold change vs veh, TFRC / RFU, ZDHHC17 / Fold change vs veh, ZDHHC17 / RFU, NOM1 / Fold change vs veh, NOM1 / RFU, ARL8B / Fold change vs veh, ARL8B / RFU, ZBTB11 / Fold change vs veh, ZBTB11 / RFU, TAMM41 / Fold change vs veh, TAMM41 / RFU, KIAA1704 /// LOC100996395 / Fold change vs veh, KIAA1704 /// LOC100996395 / RFU, ING1 / Fold change vs veh, ING1 / RFU, TRMT61B / Fold change vs veh, TRMT61B / RFU, FUBP3 / Fold change vs veh, FUBP3 / RFU, TP53 / Fold change vs veh, TP53 / RFU, TNKS2 / Fold change vs veh, TNKS2 / RFU, ZFP14 / Fold change vs veh, ZFP14 / RFU, ACTR2 / Fold change vs veh, ACTR2 / RFU, PPP3R1 / Fold change vs veh, PPP3R1 / RFU, PIK3R1 / Fold change vs veh, PIK3R1 / RFU, HNRNPA1 / Fold change vs veh, HNRNPA1 / RFU, RNF170 / Fold change vs veh, RNF170 / RFU, ZNF28 / Fold change vs veh, ZNF28 / RFU, RNGTT / Fold change vs veh, RNGTT / RFU, OGT / Fold change vs veh, OGT / RFU, BRD1 / Fold change vs veh, BRD1 / RFU, MARS / Fold change vs veh, MARS / RFU, ZNF655 / Fold change vs veh, ZNF655 / RFU, FAHD1 / Fold change vs veh, FAHD1 / RFU, BDP1 / Fold change vs veh, BDP1 / RFU, LRRCC1 / Fold change vs veh, LRRCC1 / RFU, ARID1A / Fold change vs veh, ARID1A / RFU, ZNF146 / Fold change vs veh, ZNF146 / RFU, ZNF330 / Fold change vs veh, ZNF330 / RFU, GPN3 / Fold change vs veh, GPN3 / RFU, C9orf123 / Fold change vs veh, C9orf123 / RFU, N4BP2L2 / Fold change vs veh, N4BP2L2 / RFU, ARFIP1 / Fold change vs veh, ARFIP1 / RFU, FAM179B / Fold change vs veh, FAM179B / RFU, BCL10 / Fold change vs veh, BCL10 / RFU, UHRF1BP1L / Fold change vs veh, UHRF1BP1L / RFU, BET1 / Fold change vs veh, BET1 / RFU, CNOT2 / Fold change vs veh, CNOT2 / RFU, ZNF268 / Fold change vs veh, ZNF268 / Fold change vs veh, ZNF507 / RFU, DGCR2 / Fold change vs veh, DGCR2 / RFU, WDSUB1 / Fold change vs veh, WDSUB1 / Fold change vs veh, HSP90B1 /// MIR3652 / RFU, ADSS / Fold change vs veh, ADSS / RFU, GK / Fold change vs veh, GK / RFU, ZNF148 / Fold change vs veh, ZNF148 / RFU, TAF9 / Fold change vs veh, TAF9 / RFU, SLC1A5 / Fold change vs veh, SLC1A5 / RFU, SLMO2 / Fold change vs veh, SLMO2 / RFU, ABCC4 / Fold change vs veh, ABCC4 / RFU, LOC101060439 /// RAP1B / Fold change vs veh, LOC101060439 /// RAP1B / RFU, RFX7 / Fold change vs veh, RFX7 / RFU, GTPBP10 / Fold change vs veh, GTPBP10 / RFU, CNEP1R1 / Fold change vs veh, CNEP1R1 / RFU, BIVM-ERCC5 /// ERCC5 / Fold change vs veh, BIVM-ERCC5 /// ERCC5 / RFU, ILF3 / Fold change vs veh, ILF3 / RFU 11762660_at / Fold change /veh 11762660_at / RFU VCAN (11757783_s_at) / Fold change /veh VCAN (11757783_s_at) / RFU DDX43 (11728927_at) / Fold change /veh DDX43 (11728927_at) / RFU KRT8 (11758188_x_at) / Fold change /veh KRT8 (11758188_x_at) / RFU NKD1 (11759106_at) / Fold change /veh NKD1 (11759106_at) / RFU SRD5A1 (11742802_a_at) / Fold change /veh SRD5A1 (11742802_a_at) / RFU TPSAB1 /// TPSB2 (11721975_s_at) / Fold change /veh TPSAB1 /// TPSB2 (11721975_s_at) / RFU GSTM3 (11746129_a_at) / Fold change /veh GSTM3 (11746129_a_at) / RFU IL23R (11737362_x_at) / Fold change /veh IL23R (11737362_x_at) / RFU TMEM51 (11727254_a_at) / Fold change /veh TMEM51 (11727254_a_at) / RFU PIWIL2 (11732686_x_at) / Fold change /veh PIWIL2 (11732686_x_at) / RFU ORM1 (11744905_x_at) / Fold change /veh ORM1 (11744905_x_at) / RFU CCDC152 (11743942_at) / Fold change /veh CCDC152 (11743942_at) / RFU ECM1 (11717891_a_at) / Fold change /veh ECM1 (11717891_a_at) / RFU IL23R (11748794_a_at) / Fold change /veh IL23R (11748794_a_at) / RFU TNFAIP8L3 (11732012_x_at) / Fold change /veh TNFAIP8L3 (11732012_x_at) / RFU MBOAT4 (11741988_at) / Fold change /veh MBOAT4 (11741988_at) / RFU 11764193_at / Fold change /veh 11764193_at / RFU TMEM53 (11763286_at) / Fold change /veh TMEM53 (11763286_at) / RFU MAGEB2 (11727129_at) / Fold change /veh MAGEB2 (11727129_at) / RFU TMEM200A (11744735_a_at) / Fold change /veh TMEM200A (11744735_a_at) / RFU CCDC152 (11751479_a_at) / Fold change /veh CCDC152 (11751479_a_at) / RFU FAM211A (11726209_a_at) / Fold change /veh FAM211A (11726209_a_at) / RFU RGS16 (11746705_a_at) / Fold change /veh RGS16 (11746705_a_at) / RFU VCAN (11755009_s_at) / Fold change /veh VCAN (11755009_s_at) / RFU RHOB (11743442_s_at) / Fold change /veh RHOB (11743442_s_at) / RFU RGS16 (11720943_a_at) / Fold change /veh RGS16 (11720943_a_at) / RFU RGS16 (11720944_at) / Fold change /veh RGS16 (11720944_at) / RFU, VPS4B / Fold change vs veh, VPS4B / RFU, CREB1 / Fold change vs veh, CREB1 / RFU, DNAJC13 / Fold change vs veh, DNAJC13 / RFU, GNAQ / Fold change vs veh, GNAQ / RFU, CDK5R1 / Fold change vs veh, CDK5R1 / RFU, ZRANB3 / Fold change vs veh, ZRANB3 / RFU, CUL4A / Fold change vs veh, CUL4A / RFU, CCNY / Fold change vs veh, CCNY / RFU, UFL1 / Fold change vs veh, UFL1 / RFU, COG3 / Fold change vs veh, COG3 / RFU, DIAPH2 / Fold change vs veh, DIAPH2 / RFU, SKA2 / Fold change vs veh, SKA2 / RFU, AFF3 / Fold change vs veh, AFF3 / RFU, LMF1 / Fold change vs veh, LMF1 / RFU, IPO11 / Fold change vs veh, IPO11 / RFU, DFFB / Fold change vs veh, DFFB / RFU, FOXP1 / Fold change vs veh, FOXP1 / RFU, CARD8 / Fold change vs veh, CARD8 / RFU, STRN3 / Fold change vs veh, STRN3 / RFU, ADK / Fold change vs veh, ADK / RFU, RASSF2 / Fold change vs veh, RASSF2 / RFU, WIPF1 / Fold change vs veh, WIPF1 / RFU, LARP1B / Fold change vs veh, LARP1B / RFU, RASA1 / Fold change vs veh, RASA1 / RFU, RB1 / Fold change vs veh, RB1 / RFU, PPFIA1 / Fold change vs veh, PPFIA1 / RFU, MAT2A / Fold change vs veh, MAT2A / RFU, CCT5 / Fold change vs veh, CCT5 / RFU, WDR92 / Fold change vs veh, WDR92 / RFU, CUX1 / Fold change vs veh, CUX1 / RFU, TTC7A / Fold change vs veh, TTC7A / RFU, TMEM135 / Fold change vs veh, TMEM135 / RFU, DEPTOR / Fold change vs veh, DEPTOR / RFU, CPM / Fold change vs veh, CPM / RFU, DNAJB6 / Fold change vs veh, DNAJB6 / RFU, CACNA2D3 / Fold change vs veh, CACNA2D3 / RFU, DTX4 / Fold change vs veh, DTX4 / RFU, TFCP2 / Fold change vs veh, TFCP2 / RFU, GMCL1 /// GMCL1P1 / Fold change vs veh, GMCL1 /// GMCL1P1 / RFU, AEBP2 / Fold change vs veh, AEBP2 / RFU, SNHG1 /// SNORD22 /// SNORD25 /// SNORD26 /// SNORD27 /// SNORD28 /// SNORD29 /// SNORD31 / Fold change vs veh, SNHG1 /// SNORD22 /// SNORD25 /// SNORD26 /// SNORD27 /// SNORD28 /// SNORD29 /// SNORD31 / Fold change (Aza/veh), C12orf56 (ProbeSet 11735607_a_at) / Fold change (ACY-1035/veh), C12orf56 (ProbeSet 11735607_a_at) / Fold change (Aza/veh), FGFR1OP (ProbeSet 11751329_s_at) / Fold change (ACY-1035/veh), FGFR1OP (ProbeSet 11751329_s_at) / Fold change (Aza/veh), VPS36 (ProbeSet 11739960_a_at) / Fold change (ACY-1035/veh), VPS36 (ProbeSet 11739960_a_at) / RFU SYPL1 (11715823_x_at) / Fold change /veh SYPL1 (11715823_x_at) / RFU IGFBP7 (11715501_s_at) / Fold change /veh IGFBP7 (11715501_s_at) / RFU REEP3 (11722064_at) / Fold change /veh REEP3 (11722064_at) / RFU IGLL1 (11728026_x_at) / Fold change /veh IGLL1 (11728026_x_at): dose or concentration left out as unconfirmed
Conditions: ProbeSet 11746640_a_at; LIST D

Nc1ncn([C@@H]2O[C@H](CO)[C@@H](O)[C@H]2O)c(=O)n1 [azacitidine]
RFU, RASSF2: 35.94 RFU
